Results reported in PubChem BioAssay (NCI).
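Five concentrations, 48 hours, 96-well plates. TGI marks complete inhibition of growth.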

Columns and labels:
Experiment in all cases: NCI anticancer screen, dose series, 48 h
ACHN renal = test system: ACHN renal
EKVX NSCLC = test system: EKVX NSCLC
SNB-75 CNS = test system: SNB-75 CNS
UO-31 renal = test system: UO-31 renal
BT-549 breast = test system: BT-549 breast
MDA-MB-435 = test system: MDA-MB-435
NCI-H226 lung = test system: NCI-H226 lung
NCI-H522 lung = test system: NCI-H522 lung
MOLT-4 leukemia = test system: MOLT-4 leukemia
U251 CNS = test system: U251 CNS

SMILES | TGI (ACHN renal) [µM] | TGI (EKVX NSCLC) [µM] | TGI (SNB-75 CNS) [µM] | TGI (UO-31 renal) [µM] | TGI (BT-549 breast) [µM] | TGI (MDA-MB-435) [µM] | TGI (NCI-H226 lung) [µM] | TGI (NCI-H522 lung) [µM] | TGI (MOLT-4 leukemia) [µM] | TGI (U251 CNS) [µM]
O=c1[nH]cnc2c1nnn2CCCCCCCCCCCCn1nnc2c(=O)[nH]cnc21 | > 100 | > 82.5 | > 57.2 | > 100 | > 100 | > 100 | 63.5 | 63 | > 100 | 52.8
COc1ccc(/C=C/C2=NN(c3cccc(S(=O)(=O)O)c3)C3(C2)SCC(=O)N3c2nc3ccccc3s2)cc1 (centres undefined) | > 100 | > 100 | > 100 | > 100 | > 100 | > 100 | > 100 | > 100 | > 100 | > 100
C[Si](C)(C)C1=C([Si](C)(C)C)C(Cl)(Cl)C1=O | 4.9 | 16.2 | 24.9 | 8.45 | 16.1 | 7.22 | 8.86 | 3.6 | 3.45 | 11.3
c1cnc(N2CCN(Cc3c[nH]c4ccccc34)CC2)nc1 | > 100 | > 100 | > 100 | > 100 | > 100 | > 100 | > 100 | > 100 | > 100 | > 100
C[C@H](C/C=C/C(C)(C)O)[C@H]1CC[C@@]2(C)[C@@H]3CC[C@H]4C(C)(C)[C@@H](O)CC[C@@]45C[C@@]35CC[C@]12C | 18.9 | 34.7 | 52.5 | 53.6 | 56 | 50.7 | 38.5 | 15.4 | 32.8 | 53.8
C[Si](C)(c1ccccc1)[C@H]1CCCC=C1CCNC1c2ccccc2CCc2ccccc21 | > 100 | > 100 | > 100 | > 100 | > 100 | > 100 | > 100 | > 100 | > 100 | > 100
COc1ccc(-n2sc3ncccc3c2=O)cc1 | 34.5 | 28.4 | 51 | 33.7 | 38.6 | 66.7 | > 100 | 46.4 | > 100 | 44.6
CSC1NC(c2ccc(Cl)cc2)=C(C#N)C(=O)N1C1OCC(OC(C)=O)C(OC(C)=O)C1OC(C)=O (centres undefined) | > 100 | > 100 | > 100 | > 100 | > 100 | > 100 | > 100 | > 100 | > 100 | > 100
COC(=O)c1ccc(Nc2nc3nc[nH]c3c(=O)[nH]2)cc1 | > 100 | > 100 | > 100 |  | > 100 | > 100 | > 100 | > 100 | > 100 | > 100
COC(OC)[C@@H]1OC[C@@H](O)[C@@H]1n1cnc2c(N)ncnc21 | > 100 | > 100 | > 100 | > 100 | > 100 | > 100 | > 100 | > 100 | > 100 | > 100
O=C1C(CN2CCOCC2)CCCC1CN1CCOCC1 (centres undefined) | 3.53 | 10.7 | 29.9 | 18.9 | 3.5 | 27.5 | 40.3 | 0.156 | 2.33 | 45
COc1ccc(/C=N/n2cnc3[nH]c(C)c(Cc4ccccc4)c3c2=N)cc1 | > 100 | > 100 | > 100 | > 100 | > 100 | > 100 | > 100 | > 100 | > 100 | > 100
COc1ccc(C(OCC2OC(n3ccc(NC(=O)c4ccccc4)nc3=O)CC2OP2(=S)SCCS2)(c2ccccc2)c2ccc(OC)cc2)cc1 (centres undefined) | 61.5 | > 100 | 46.6 | > 100 | 53.6 | > 100 | 67.4 | 53 | > 100 | 86.5
C[N+]1(CCN[N+]2(C)CCCCC2)CCc2ccccc2C1 (centres undefined) | > 100 | > 100 | > 100 | > 100 | > 100 | > 100 | > 100 | > 100 | > 100 | > 100
NNC(=O)c1cc(=O)[nH][nH]1 | > 100 | > 100 | > 100 | > 100 | > 100 | > 100 | > 100 | > 100 | > 100 | > 100
O=[N+]([O-])c1ccc(O)c(/C=N/NC(=S)N2CCCCC2)c1 | 6.97 | 15.3 | 33.1 | 4.58 | 63.4 | > 83 | 5.94 | > 45.3 | > 44.4 | 90.3
